These results are taken from patent publication US6482413B1, “Vitamin B12 —biodegradable micro particulate conjugate carrier systems for peroral delivery of drugs, therapeutic peptides/proteins and vaccines” (Council of Scientific and Industrial Research, priority 2001, dated 2002).

The test system of series [1] is VB12 transport system. The following applies: oral uptake capacity; cited from earlier work.
Series [2] has as its system intestinal enzymes. The following applies: FIG. 3; same experimental conditions for free and entrapped insulin.
Series [3] concerns Streptozotocin induced diabetic rats. Put plainly: Antidiabetic activity of orally administered insulin loaded delivery systems. Format: in vivo, rat. The protocol: The pharmacological availability was assessed by the above results.
Various insulin loaded drug delivery systems prepared were tested for antidiabetic activity in Streptozotocin induced diabetic rats and the results are briefed in summary section. These insulin drug delivery systems are orally administered to diabetic rats (n=number of animals). At various time intervals after feeding the rats were bled and their blood glucose levels determined.

Series [4] concerns the target IF (Homo sapiens, UniProt P27352). The following applies: among b, d and e monocarboxylate isomers; cited from earlier work.

IF, sequence (P27352 19-417): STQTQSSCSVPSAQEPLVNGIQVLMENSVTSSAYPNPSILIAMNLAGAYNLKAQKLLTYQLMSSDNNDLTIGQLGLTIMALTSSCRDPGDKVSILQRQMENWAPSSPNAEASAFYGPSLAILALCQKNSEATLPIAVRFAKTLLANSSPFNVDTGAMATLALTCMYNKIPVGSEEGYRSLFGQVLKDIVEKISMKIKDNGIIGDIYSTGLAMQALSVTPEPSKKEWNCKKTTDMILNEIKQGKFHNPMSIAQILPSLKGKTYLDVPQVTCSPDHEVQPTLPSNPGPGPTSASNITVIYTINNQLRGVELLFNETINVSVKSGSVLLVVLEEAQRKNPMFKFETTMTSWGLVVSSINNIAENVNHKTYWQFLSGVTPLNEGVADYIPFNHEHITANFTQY

With Vitamin B12 [VB12], the “uptake of VB12” value in series [1] was 1 nmol/dose.
insulin: the “Degradation of insulin by digestive enzymes” value in series [2] is “completely degraded”. For the same substance, the “activity at 3rd, 4th, 5th and 6th hours” value in series [3] is on record as “no activity”.
For the substance “‘e’ monocarboxylate of VB12 [Conjugate 1b]”, in series [4], the “affinity for IF” value was “highest affinity”.
